Measured values: ChEMBL document CHEMBL1201862, “PubChem BioAssay data set” (2004)
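A five-concentration, 48-hour dose response in 96-well plates underlies each endpoint, interpolated linearly between surrounding concentrations. At the GI50, growth is halved.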 Calls of active or inactive are those of the source. Cut-off read from the data, not from the text of the source: active = GI50 up to about 1.1 µM and inactive = higher.

Tests used:
Experiment in all cases: NCI anticancer screen, dose series, 48 h
[1] = system: DMS-273
[2] = system: HOP-18
[3] = system: M19-MEL
[4] = system: DLD-1
[5] = system: LXFL 529
[6] = system: XF498
[7] = system: KM-20L2
[8] = system: SNB-78
[9] = system: RXF 631

Measured: GI50

Cn1cc(C(=O)NCCC(=N)N)cc1NC(=O)C1=[N+](C)C=C(NC(=O)c2cccc(C(=O)NC3=CC(C(=O)Nc4cc(C(=O)NCCC(=N)N)cn4C)=[N+](C)C3)c2)C1
inactive: [1] 59.8 µM | [2] > 100 µM | [3] > 100 µM | [4] > 100 µM | [5] > 100 µM | [6] > 100 µM | [7] > 100 µM

N/N=C1\C(=O)N(c2ccc(Cl)c(Cl)c2)C(=O)C1C(=O)Nc1ccc(Cl)c(Cl)c1 (stereo not given)
inactive: [2] 21.6 µM | [8] 24.7 µM | [3] > 100 µM | [4] 64 µM | [5] 46.5 µM | [9] 59.2 µM | [7] 48.4 µM

Cc1cc(NCCCCCCCNc2cc(C)nc3cc(N)ccc23)c2ccc(N)cc2n1
inactive: [8] 40.3 µM | [3] 32.2 µM | [4] 28.8 µM | [5] 26.5 µM | [6] 17.2 µM | [7] 34.2 µM

CC(=O)OC1(C#N)CC2OC1C1C2N1C(=O)c1ccccc1 (stereo not given)
inactive: [8] > 100 µM | [3] > 100 µM | [4] > 100 µM | [5] > 100 µM | [6] > 100 µM | [9] > 100 µM | [7] > 100 µM

CC(C(=O)N1C(=O)N(C(=O)C(C)C(O)c2ccccc2)C2CCCCC21)C(O)c1ccccc1 (stereo not given)
inactive: [1] > 100 µM | [8] > 100 µM | [3] 83.8 µM | [5] 44.1 µM | [6] 79.6 µM | [7] > 100 µM

CC(=O)OC1COC(N2CCc3cc([N+](=O)[O-])ccc32)C(OC(C)=O)C1OC(C)=O (stereo not given)
inactive: [1] > 100 µM | [8] > 100 µM | [3] > 100 µM | [4] > 100 µM | [5] > 100 µM | [6] 50.4 µM | [7] > 100 µM

c1ccc2c(c1)n1nnnc1c1nnnn21
inactive: [1] > 100 µM | [8] 53.6 µM | [3] > 100 µM | [4] > 100 µM | [5] > 100 µM | [6] > 100 µM | [9] > 100 µM | [7] 93.8 µM

COc1cc2c(oc(=O)c3c4occc4cc(OC)c23)c2cccc(OCc3ccccc3)c12
inactive: [1] 38.9 µM | [2] > 100 µM | [8] 37.8 µM | [3] 61.5 µM | [4] > 100 µM | [5] 64.7 µM | [6] 42 µM | [7] > 100 µM

COc1ccc(CCN2CCC(C#N)(c3ccc(OC)c(OC)c3)CC2)cc1OC
inactive: [1] > 100 µM | [2] > 100 µM | [3] > 100 µM | [4] > 100 µM | [5] > 100 µM | [6] 50.2 µM | [7] > 100 µM

COC(=O)c1ccc(N/C=C(/C#N)c2ccsc2)cc1
inactive: [1] 14.8 µM | [8] 15 µM | [3] 34 µM | [4] 13 µM | [5] 12.8 µM | [7] 12 µM

NC(=O)c1cc(N2CC2)c([N+](=O)[O-])cc1[N+](=O)[O-] [TRETAZICAR]
inactive: [1] > 100 µM | [8] > 100 µM | [3] > 100 µM | [5] > 100 µM | [9] > 100 µM | [7] > 100 µM

O=CN/C=C/c1cccc(O)c1
inactive: [1] > 100 µM | [2] > 100 µM | [8] > 100 µM | [3] > 100 µM | [4] > 100 µM | [5] > 100 µM | [6] > 100 µM | [7] > 100 µM

O=C1NC(=S)NC(=O)C1=Cc1cc2c(cc1[N+](=O)[O-])OCO2
inactive: [1] 63.1 µM | [2] > 100 µM | [8] > 100 µM | [3] > 100 µM | [4] 67.3 µM | [9] 97.3 µM | [7] > 100 µM
